Results as given in BindingDB's records for patent USRE46792 (Otsuka Pharmaceutical, 2018).

Biological target: cAMP-specific 3',5'-cyclic phosphodiesterase 4D (Homo sapiens, UniProt Q08499)
Assay: Inhibitory Activity Assay
Description: Necessary amounts of test compounds were weighed, and 100% dimethylsulfoxide (DMSO) was added thereto to adjust the concentration to 10 mM. The solutions were stored in a freezer as stock solutions of each test compound. After being thawed when required, the solutions were diluted 20-fold with 100% DMSO to give a 500 μM concentration. Further, 10-fold serial dilutions were made with 100% DMSO to prepare test compounds of different concentrations. 2 μl of solutions containing one of each of the test compound were separately added into 1.2 ml tubes in which 23 μl of 20 mM Tris-HCl (pH 7.4) had been placed beforehand. 25 μl of a PDE4D enzyme solution diluted at an optimal ratio determined in (3) above were added on ice to each of the tubes, and 50 μl of a substrate solution containing 2 μM[3H] cAMP prepared by dilution with a 20 mM Tris-HCl (pH 7.4) containing 10 mM MgCl2 was added thereto. The final DMSO concentration in the reaction liquid was 2%. After mixing, the mixture was incubated for 10 minutes at 30° C. At the completion of the incubation, the tubes were placed in a bath containing boiling water for 3 minutes, and the reaction was stopped. After cooling the tubes in ice, 25 μl solution of 0.2 mg/ml snake venom was added thereto, and after mixing the mixture was incubated for 10 minutes at 30° C. […] 3H radioactivity (cpm) was measured using a TopCount.

cAMP-specific 3',5'-cyclic phosphodiesterase 4D, sequence (Q08499 whole entry): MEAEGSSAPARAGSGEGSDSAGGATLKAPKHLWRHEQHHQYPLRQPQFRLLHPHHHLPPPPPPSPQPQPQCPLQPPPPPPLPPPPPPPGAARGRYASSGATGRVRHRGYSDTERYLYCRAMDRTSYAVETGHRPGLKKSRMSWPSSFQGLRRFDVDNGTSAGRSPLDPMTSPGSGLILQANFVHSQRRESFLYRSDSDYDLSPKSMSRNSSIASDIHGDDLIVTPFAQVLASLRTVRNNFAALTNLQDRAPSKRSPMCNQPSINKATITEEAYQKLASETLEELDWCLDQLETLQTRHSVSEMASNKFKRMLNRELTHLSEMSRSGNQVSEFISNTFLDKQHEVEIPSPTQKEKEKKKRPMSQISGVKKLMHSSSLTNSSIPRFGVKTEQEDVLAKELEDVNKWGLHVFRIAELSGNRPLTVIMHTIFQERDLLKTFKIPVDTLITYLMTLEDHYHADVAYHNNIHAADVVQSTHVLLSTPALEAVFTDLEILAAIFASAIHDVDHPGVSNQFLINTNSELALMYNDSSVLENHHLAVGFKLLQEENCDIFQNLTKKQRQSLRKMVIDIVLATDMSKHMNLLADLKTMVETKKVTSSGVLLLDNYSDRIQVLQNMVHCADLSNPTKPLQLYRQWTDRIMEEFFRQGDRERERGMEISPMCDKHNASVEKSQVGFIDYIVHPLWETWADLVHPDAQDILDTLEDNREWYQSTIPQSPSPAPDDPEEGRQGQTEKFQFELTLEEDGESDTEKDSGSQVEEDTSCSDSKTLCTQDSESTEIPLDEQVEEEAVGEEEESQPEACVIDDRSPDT

## COc1ccc(-c2nc(CCC(=O)c3ncccc3OC)co2)cc1OCC1CC1 [USRE46792, 126]
  IC50: < 50 nM
